The experiment deals with MLK3 (Homo sapiens (Human), UniProt Q16584). Kind of experiment: Radiometric filter plate MLK3 assay. The class given is biochemical. Conditions: read-out: MK3 IC50. The method, then: After a twenty minute incubation, the reactions were washed through filter plates and read on a scintillation counter. Results are shown in Table 9 below, in which +++ indicates ≤0.1 μM, ++ indicates >0.1 μM and ≤1 μM, and + indicates >1 μM.

[1] abbreviates: 2 μM cold ATP (Km), 1 μM inactive MKK7b, twenty minute incubation.

Data on 27 compounds can be found in patent US10485800B2, “Mixed lineage kinase inhibitors for HIV/AIDS therapies” (UNIVERSITY OF ROCHESTER, priority 2012, dated 2019).

Structures can show the parent of a compound that is named as a salt. Where two headings read alike, the source gives them in different places.

Chain of MLK3 (Q16584 whole entry): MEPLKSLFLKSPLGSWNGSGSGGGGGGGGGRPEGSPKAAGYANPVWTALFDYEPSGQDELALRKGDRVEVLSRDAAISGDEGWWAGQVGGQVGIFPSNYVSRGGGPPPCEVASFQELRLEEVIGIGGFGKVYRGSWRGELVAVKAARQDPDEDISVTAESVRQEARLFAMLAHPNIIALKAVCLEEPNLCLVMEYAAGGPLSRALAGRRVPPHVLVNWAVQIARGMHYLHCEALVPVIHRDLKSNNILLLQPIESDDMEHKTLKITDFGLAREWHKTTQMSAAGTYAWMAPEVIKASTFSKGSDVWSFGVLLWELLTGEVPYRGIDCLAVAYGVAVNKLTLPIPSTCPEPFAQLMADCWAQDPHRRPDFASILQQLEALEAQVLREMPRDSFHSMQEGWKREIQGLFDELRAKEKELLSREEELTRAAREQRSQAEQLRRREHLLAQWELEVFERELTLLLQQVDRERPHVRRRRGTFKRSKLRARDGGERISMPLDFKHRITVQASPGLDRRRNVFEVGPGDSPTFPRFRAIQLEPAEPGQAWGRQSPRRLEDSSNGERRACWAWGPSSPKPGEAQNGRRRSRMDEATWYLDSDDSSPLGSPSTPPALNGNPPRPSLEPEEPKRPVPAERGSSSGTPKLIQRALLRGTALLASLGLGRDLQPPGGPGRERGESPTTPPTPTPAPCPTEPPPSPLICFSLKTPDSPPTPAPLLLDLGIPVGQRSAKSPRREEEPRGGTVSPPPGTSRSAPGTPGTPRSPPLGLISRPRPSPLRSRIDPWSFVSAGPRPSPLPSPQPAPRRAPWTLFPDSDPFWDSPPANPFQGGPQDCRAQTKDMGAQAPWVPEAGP

What is called IC50 is the concentration that gives 50% inhibition. With `COc1cc(-c2cnc3c(c2)C(Cc2cccnc2)C(=O)N3)cc(OC)c1OC` (stereo not drawn) [Example 135, 3-pyridin-3-ylmethyl-5-(3,4,5-trimethoxy-phenyl)-1,3-dihydro-pyrrolo[2,3-b]pyridin-2-one], under setting [1], the IC50 was above 1 µM.

As to `COc1cc(-c2cnc3c(c2)C(Cc2ccncc2)C(=O)N3)cc(OC)c1OC` (stereo not drawn) [Example 136, 3-pyridin-4-ylmethyl-5-(3,4,5-trimethoxy-phenyl)-1,3-dihydro-pyrrolo[2,3-b]pyridin-2-one], the IC50 under setting [1] was above 1 µM.

With `COc1cc(-c2cnc3c(c2)C(Cc2ccccc2)C(=O)N3)cc(OC)c1OC` (stereo not drawn) [Example 137, 3-benzyl-5-(3,4,5-trimethoxy-phenyl)-1,3-dihydro-pyrrolo[2,3-b]pyridin-2-one], the concentration for half-maximal inhibition (IC50) under setting [1] was above 1 µM.

On to `COc1cc(-c2cnc3c(c2)C(Cc2ccc(C(N)=O)cc2)C(=O)N3)cc(OC)c1OC` (stereo not drawn) [Example 138, 4-[2-oxo-5-(3,4,5-trimethoxy-phenyl)-2,3-dihydro-1H-pyrrolo[2,3-b]pyridin-3-ylmethyl]-benzamide], for which the IC50 under setting [1] was above 1 µM.

Take `CC(=O)N1CCN(Cc2ccc(-c3cnc4[nH]cc(-c5ccc6[nH]ccc6c5)c4c3)cc2)CC1` [Example 140, 1-(4-{4-[3-(1H-indol-5-yl)-1H-pyrrolo[2,3-b]pyridin-5-yl]-benzyl}-piperazin-1-yl)-ethanone]: the IC50 under setting [1] was above 1 µM.

Consider `CN1CCN(Cc2ccc(-c3cnc4[nH]cc(-c5ccc6[nH]ccc6c5)c4c3)cc2)CC1=O` [Example 141, 4-{4-[3-(1H-indol-5-yl)-1H-pyrrolo[2,3-b]pyridin-5-yl]-benzyl}-1-methyl-piperazin-2-one], for which, under setting [1], the IC50 was below 0.1 µM.

On to `O=C1CN(Cc2ccc(-c3cnc4[nH]cc(-c5ccc6[nH]ccc6c5)c4c3)cc2)CCN1` [Example 142, 4-{4-[3-(1H-indol-5-yl)-1H-pyrrolo[2,3-b]pyridin-5-yl]-benzyl}-piperazin-2-one], for which the 50% inhibitory concentration (IC50) under setting [1] is below 0.1 µM.

With `CN1CCN(Cc2cccc(-c3cnc4[nH]cc(-c5ccc6[nH]ccc6c5)c4c3)c2)CC1=O` [Example 143, 4-{3-[3-(1H-indol-5-yl)-1H-pyrrolo[2,3-b]pyridin-5-yl]-benzyl}-1-methyl-piperazin-2-one], the IC50 under setting [1] was below 0.1 µM.

For `CC(C)(C)OC(=O)N1CCN(Cc2ccc(-c3cnc4[nH]cc(-c5ccc6[nH]ccc6c5)c4c3)cc2)CC1` [Example 144, 4-{4-[3-(1H-indol-5-yl)-1H-pyrrolo[2,3-b]pyridin-5-yl]-benzyl}-piperazine-1-carboxylic acid tert-butyl ester], under setting [1], the 50% inhibitory concentration (IC50) is below 0.1 µM.

For `CC(=O)N1CCN(C(=O)c2ccc(-c3cnc4[nH]cc(-c5ccc6[nH]ccc6c5)c4c3)cc2)CC1` [Example 146, 1-(4-{4-[3-(1H-indol-5-yl)-1H-pyrrolo[2,3-b]pyridin-5-yl]-benzoyl}-piperazin-1-yl)-ethanone], the IC50 under setting [1] was below 0.1 µM.

Turning to `CN1CCN(C(=O)c2cccc(-c3cnc4[nH]cc(-c5ccc6[nH]ccc6c5)c4c3)c2)CC1` [Example 147, {3-[3-(1H-indol-5-yl)-1H-pyrrolo[2,3-b]pyridin-5-yl]-phenyl}-(4-methyl-piperazin-1-yl)-methanone], the IC50 was below 0.1 µM.

Consider `CC(C)(C)OC(=O)N1CCN(C(=O)c2ccc(-c3cnc4[nH]cc(-c5ccc(C(N)=O)cc5)c4c3)cc2)CC1` [Example 148, 4-{4-[3-(4-carbamoyl-phenyl)-1H-pyrrolo[2,3-b]pyridin-5-yl]-benzoyl}-piperazine-1-carboxylic acid tert-butyl ester], for which the IC50 under setting [1] is below 0.1 µM.

As to `NC(=O)c1ccc(-c2c[nH]c3ncc(-c4ccc(C(=O)N5CCNCC5)cc4)cc23)cc1` [Example 149, 4-{5-[4-(piperazine-1-carbonyl)-phenyl]-1H-pyrrolo[2,3-b]pyridin-3-yl}-benzamide, hydrochloride salt], the half-inhibitory concentration (IC50) under setting [1] was below 0.1 µM.

In the case of `CC(C)(C)OC(=O)N1CCN(C(=O)c2cccc(-c3cnc4[nH]cc(-c5ccc(C(N)=O)cc5)c4c3)c2)CC1` [Example 151, 4-{3-[3-(4-carbamoyl-phenyl)-1H-pyrrolo[2,3-b]pyridin-5-yl]-benzoyl}-piperazine-1-carboxylic acid tert-butyl ester], the half-maximal inhibitory concentration (IC50) under setting [1] is below 0.1 µM.

Regarding `COc1cc(-c2cc3c(-c4ccc(C(N)=O)cc4)c[nH]c3[n+]([O-])c2)cc(OC)c1OC` [Example 154, 4-[7-oxy-5-(3,4,5-trimethoxy-phenyl)-1H-pyrrolo[2,3-b]pyridin-3-yl]-benzamide], the concentration for half-maximal inhibition (IC50) under setting [1] was 0.1 to 1 µM.

For the compound `CN1CCN(Cc2cccc(-c3cnc4[nH]cc(-c5ccc(C(N)=O)cc5)c4c3)c2)CC1` [Example 156, 4-{5-[3-(4-methyl-piperazin-1-ylmethyl)-phenyl]-1H-pyrrolo[2,3-b]pyridin-3-yl}-benzamide], the IC50 under setting [1] is below 0.1 µM.

As for `CC(=O)N1CCN(Cc2ccc(-c3cnc4[nH]cc(-c5ccc(C(N)=O)cc5)c4c3)cc2)CC1` [Example 157, 4-{5-[4-(4-acetyl-piperazin-1-ylmethyl)-phenyl]-1H-pyrrolo[2,3-b]pyridin-3-yl}-benzamide], the concentration for half-maximal inhibition (IC50) under setting [1] is below 0.1 µM.

For the compound `CN1CCN(Cc2ccc(-c3cnc4[nH]cc(-c5ccc(C(N)=O)cc5)c4c3)cc2)CC1=O` [Example 158, 4-{5-[4-(4-methyl-3-oxo-piperazin-1-ylmethyl)-phenyl]-1H-pyrrolo[2,3-b]pyridin-3-yl}-benzamide], the IC50 under setting [1] was below 0.1 µM.

Consider `COc1cc(-c2cnc3[nH]cc(-c4ccc(CNC(C)=O)cc4)c3c2)cc(OC)c1OC` [Example 159, N-{4-[5-(3,4,5-Trimethoxy-phenyl)-1H-pyrrolo[2,3-b]pyridin-3-yl]-benzyl}-acetamide], for which the IC50 under setting [1] was below 0.1 µM.

`CN1CCN(Cc2ccc(-c3c[nH]c4ncc(-c5ccc(C(N)=O)cc5)cc34)cc2)CC1` [Example 162, 4-{3-[4-(4-methyl-piperazin-1-ylmethyl)-phenyl]-1H-pyrrolo[2,3-b]pyridin-5-yl}-benzamide]: under setting [1], the half-inhibitory concentration (IC50) was below 0.1 µM.

For `CN1CCN(Cc2ccc(-c3c[nH]c4ncc(-c5ccc6[nH]ccc6c5)cc34)cc2)CC1` [Example 163, 5-(1H-indol-5-yl)-3-[4-(4-methyl-piperazin-1-ylmethyl)-phenyl]-1H-pyrrolo[2,3-b]pyridine], under setting [1], the IC50 is above 1 µM.

Take `CNC(=O)c1ccc(-c2c[nH]c3ncc(-c4cc(OC)c(OC)c(OC)c4)cc23)cc1` [Example 164, N-methyl-4-[5-(3,4,5-trimethoxy-phenyl)-1H-pyrrolo[2,3-b]pyridin-3-yl]-benzamide]: the IC50 was above 1 µM.

Regarding `CNC(=O)c1ccc(-c2c[nH]c3ncc(-c4ccc(CN5CCN(C)CC5)cc4)cc23)cc1` [Example 165, N-methyl-4-{5-[4-(4-methyl-piperazin-1-ylmethyl)-phenyl]-1H-pyrrolo[2,3-b]pyridin-3-yl}-benzamide], the IC50 under setting [1] was below 0.1 µM.

Turning to `c1cc2cc(-c3c[nH]c4ncc(-c5ccc(CN6CCNCC6)cc5)cc34)ccc2[nH]1` [Example 168, 3-(1H-indol-5-yl)-5-(4-(piperazin-1-ylmethyl)phenyl)-1H-pyrrolo[2,3-b]pyridine], the concentration for half-maximal inhibition (IC50) fell in the range of 0.1 to 1 µM.

Regarding `CN1CCN(Cc2ccc(-c3cnc4[nH]cc(-c5ccc(F)cc5)c4c3)cc2)CC1` [Example 169], under setting [1], the 50% inhibitory concentration (IC50) is above 1 µM.

On to `CN1CCN(Cc2ccc(-c3cnc4[nH]cc(-c5ccc(C(F)(F)F)cc5)c4c3)cc2)CC1` [Example 170], for which, under setting [1], the IC50 is above 1 µM.

As to `COc1ccc(-c2c[nH]c3ncc(-c4ccc(CN5CCN(C)CC5)cc4)cc23)cc1` [Example 171], the concentration for half-maximal inhibition (IC50) lay within 0.1 to 1 µM.
